Source: ChEMBL document CHEMBL5357036, “Latest developments in coumarin-based anticancer agents: mechanism of action and structure-activity relationship studies” (RSC Med Chem, 2024)
Blank lines part the entries; values can stand above or below the compound they belong to.

What was measured:
SNB-75 = assay: Antiproliferative activity against human SNB-75 cells assessed as cell growth inhibition at 10 uM by SRB assay relative to control; type: functional
MCF7 [1] = assay: Anticancer activity against human MCF7 cells after 48 hrs by SRB assay; type: functional, cell-based; details: MCF7, 48 h
MCF7 [2] = assay: Antiproliferative activity against human MCF7 cells assessed as reduction in cell viability incubated for 48 hrs by cell titer-glo assay; type: functional, cell-based; details: MCF7, 48 h
MCF7 [3] = assay: Anticancer activity against human MCF7 cells assessed as inhibition of cell proliferation measured after 72 hrs by MTT assay; type: functional, cell-based; details: MCF7, 72 h
SK-OV-3 [4] = assay: Anticancer activity against human SK-OV-3 cells assessed as reduction in cell viability incubated for 24 hrs by MTT assay; type: functional, cell-based; details: SK-OV-3, 24 h
MCF7 [5] = assay: Anticancer activity against human MCF7 cells assessed as inhibition of cell proliferation measured after 48 hrs by MTT assay; type: functional, cell-based; details: MCF7, 48 h
MCF7-DOX [6] = assay: Antiproliferative activity against human MCF7-DOX cells assessed as reduction in cell viability incubated for 72 hrs by MTT assay; type: functional, cell-based
MCF7 [7] = assay: Cytotoxicity against human MCF7 cells assessed as reduction in cell growth incubated for 5 days by MTT assay; type: functional, cell-based; details: MCF7, 120 h
[8] = Cytotoxicity against human HEK cells assessed as reduction in cell growth incubated for 5 days by MTT assay; type: functional, cell-based; details: HEK293, 120 h
MDA-MB-231 [9] = assay: Antiproliferative activity against human MDA-MB-231 cells assessed as reduction in cell proliferation incubated for 72 hrs by CellTiter-Glo reagent based assay; type: functional; details: MDA-MB-231, 72 h
[10] = Antiproliferative activity against human H357 cells assessed as reduction in cell proliferation incubated for 72 hrs by CellTiter-Glo reagent based assay; type: functional; details: H357, 72 h
HeLa = assay: Anticancer activity against human HeLa cells assessed as inhibition of cell growth by SRB assay; type: functional, cell-based
HepG2 [11] = assay: Antiproliferative activity against human HepG2 cells assessed as cell growth inhibition incubated for 48 hrs by MTT assay; type: functional, cell-based
PANC-1 = assay: Antiproliferative activity against human PANC-1 cells assessed as cell growth inhibition incubated for 48 hrs by MTT assay; type: functional, cell-based; details: PANC-1, 48 h
SGC-7901 = assay: Antiproliferative activity against human SGC-7901 cells assessed as cell growth inhibition; type: functional, cell-based
[12] = Oral bioavailability in Sprague-Dawley rat at 10 mg/kg measured up to 24 hrs by LC-MS/MS analysis; type: ADME, organism-based; details: in vivo
A549 (Homo sapiens) = assay: Antiproliferative activity against human A549 cells assessed as cell growth inhibition incubated for 48 hrs by MTT assay; details: A549, 48 h
HL-60 = assay: Antiproliferative activity against human HL-60 cells assessed as cell growth inhibition measured after 72 hrs by trypan blue staining based assay; type: functional; details: HL-60, 72 h
KE-37 = assay: Anticancer activity against human KE-37 cells assessed as reduction in cell viability; type: functional, cell-based
K562 = assay: Antiproliferative activity against human K562 cells assessed as cell growth inhibition; type: functional, cell-based
MDA-MB-231 [13] = assay: Antiproliferative activity against human MDA-MB-231 cells assessed as cell growth inhibition by SRB assay; type: functional, cell-based
MCF7 [14] = assay: Anticancer activity against human MCF7 cells assessed as inhibition of cell growth incubated for 48 hrs by MTT assay; type: functional, cell-based; details: MCF7, 48 h
A-375 = assay: Anticancer activity against human A-375 cells assessed as inhibition of cell growth incubated for 48 hrs by MTT assay; type: functional, cell-based; details: A-375, 48 h
A549 [15] = assay: Anticancer activity against human A549 cells assessed as inhibition of cell growth incubated for 48 hrs by MTT assay; type: functional, cell-based; details: A549, 48 h
HepG2 [16] = assay: Antiproliferative activity against human HepG2 cells assessed as reduction in cell viability incubated for 48 hrs by MTT assay; type: functional, cell-based; details: HepG2, 48 h
HepG2 [17] = assay: Induction of apoptosis in human HepG2 cells assessed as increase in apoptotic cells at 10 uM by Annexin V-FITC staining based flow cytometry (reference value: 13.76 %); type: functional
SK-OV-3 [18] = assay: Antiproliferative activity against human SK-OV-3 cells assessed as reduction in cell growth by SRB assay; type: functional, cell-based
MT4 = assay: Cytotoxicity against human MT4 cells assessed as inhibition of cell growth incubated for 72 hrs by MTT assay; type: functional
MDA-MB-231 [19] = assay: Cytotoxicity against human MDA-MB-231 cells assessed as inhibition of cell growth incubated for 72 hrs by MTT assay; type: functional
MCF7 [20] = assay: Cytotoxicity against human MCF7 cells assessed as inhibition of cell growth incubated for 72 hrs by MTT assay; type: functional
4T1 = assay: Cytotoxicity against mouse 4T1 cells assessed as inhibition of cell proliferation incubated for 72 hrs by MTT assay; type: functional, cell-based; details: 4T1, 72 h
MCF7 [21] = assay: Cytotoxicity against human MCF7 cells assessed as inhibition of cell proliferation incubated for 72 hrs by MTT assay; type: functional, cell-based; details: MCF7, 72 h
HepG2 [22] = assay: Anticancer activity against human HepG2 cells assessed as reduction in cell viability by SRB assay; type: functional, cell-based
A549 [23] = assay: Anticancer activity against human A549 cells assessed as reduction in cell viability by SRB assay; type: functional, cell-based
DU-145 = assay: Anticancer activity against human DU-145 cells assessed as reduction in cell viability by SRB assay; type: functional, cell-based
MCF7 [24] = assay: Anticancer activity against human MCF7 cells assessed as reduction in cell viability by SRB assay; type: functional, cell-based
MCF7-DOX [25] = assay: Antiproliferative activity against human MCF7-DOX cells assessed as reduction in cell viability by SRB assay; type: functional, cell-based
SMMC-7721 = assay: Antiproliferative activity against human SMMC-7721 cells assessed as reduction in cell viability incubated for 48 hrs by MTT assay; type: functional, cell-based; details: SMMC-7721, 48 h
Bel-7402 = assay: Antiproliferative activity against human Bel-7402 cells assessed as reduction in cell viability incubated for 48 hrs by MTT assay; type: functional, cell-based; details: Bel-7402, 48 h
MHCC97 = assay: Antiproliferative activity against human MHCC97 cells assessed as inhibition of cell growth measured after 3 days by CellTiter-Glo assay; type: functional, cell-based; details: MHCC97, 72 h
Hep 3B2 = assay: Antiproliferative activity against human Hep3B cells assessed as reduction in cell viability incubated for 48 hrs by MTT assay; type: functional, cell-based
HepG2 [26] = assay: Cytotoxicity against human HepG2 cells assessed as reduction in cell viability measured after 24 hrs by MTT assay; type: functional, cell-based; details: HepG2, 24 h
Ehrlich = assay: Cytotoxicity against mouse EAC cell assessed as reduction in cell viability by MTT assay; type: functional, cell-based
[27] = Cytotoxicity against mouse DLA cell assessed as reduction in cell viability by trypan blue assay; type: functional, cell-based
[28] = Cytotoxicity against mouse DLA cell assessed as reduction in cell viability by LDH leak assay; type: functional, cell-based
HCT-116 = assay: Antiproliferative activity against human HCT-116 cells assessed as reduction in cell viability incubated for 72 hrs by MTT assay; type: functional, cell-based; details: HCT-116, 72 h
[29] = Cytotoxicity against rat H4-II-E cells assessed as reduction in cell viability measured after 24 hrs by MTT assay; type: functional, cell-based; details: H4IIE
MGC-803 = assay: Cytotoxicity against human MGC-803 cells assessed as cell growth inhibition incubated for 24 hrs by MTT assay; type: functional, cell-based; details: MGC-803, 24 h
A549 [30] = assay: Cytotoxicity against human A549 cells assessed as cell growth inhibition incubated for 24 hrs by MTT assay; type: functional, cell-based; details: A549, 24 h
NCI-H460 = assay: Cytotoxicity against human NCI-H460 cells assessed as cell growth inhibition incubated for 24 hrs by MTT assay; type: functional, cell-based; details: NCI-H460, 24 h

Structure (SMILES): COc1cc2c3c(c(=O)oc2cc1OS(=O)(=O)c1ccc(C(F)(F)F)cc1)CCCCC3
inhibition at 10 µM (SNB-75): 91.9%

IC50 (MCF7 [1]): 0.18 µM
Structure (SMILES): COc1ccc2nc(SCc3cc(=O)oc4ccc(C(C)(C)C)cc34)[nH]c2c1

IC50 (MCF7 [2]): 2.56 µM
Structure (SMILES): CCN(C)S(=O)(=O)c1ccc(/C(C)=N/NC(=O)c2cc3ccccc3oc2=O)cc1

IC50 (MCF7 [3]): 15.4 µM
Structure (SMILES): O=C(O)COc1ccc2ccccc2c1/C=C/C(=O)c1cc2c(ccc3ccccc32)oc1=O

IC50 (SK-OV-3 [4]): 23.8 µM
IC50 (MCF7 [5]): 11.9 µM
IC50 (MCF7-DOX [6]): 18.9 µM
Structure (SMILES): Cc1cc(=O)oc2cc(OCCOCCOCCOCN3C(=O)/C(=N/O)c4cc(F)ccc43)ccc12

Structure (SMILES): CC(c1cc2ccccc2oc1=O)(c1c[nH]c2ccc(Br)cc12)c1c[nH]c2ccc(Br)cc12
IC50 (MCF7 [7]): 21.2 µM
IC50 [8]: > 50 µM

IC50 (MDA-MB-231 [9]): 7.78 µM
Structure (SMILES): C/C(=N\c1ccc(S(N)(=O)=O)cc1)c1cc2ccccc2oc1=O
IC50 [10]: 8.68 µM

IC50 (HeLa): 11.5 µM
Structure (SMILES): Cc1cc(=O)oc2cc(OCCOCCN3C(=O)C(=O)c4cc(F)ccc43)ccc12

IC50 (HepG2 [11]): 4.75 µM
IC50 (PANC-1): 7.02 µM
IC50 (SGC-7901): 6.39 µM
bioavailability [12]: 49.4%
IC50 (A549 (Homo sapiens)): 4.63 µM
Structure (SMILES): COc1cc(Cl)ccc1S(=O)(=O)Nc1ccc2oc(=O)ccc2c1

IC50 (HL-60): 2.9 µM
IC50 (K562): 7.2 µM
IC50 (MDA-MB-231 [13]): 9.1 µM
Structure (SMILES): O=C(N/N=C/c1c(Cl)c2ccccc2oc1=O)c1ccccc1
IC50 (KE-37): 5.3 µM

IC50 (MCF7 [14]): 5.17 µM
IC50 (A-375): 9.02 µM
IC50 (A549 [15]): 4.29 µM
Structure (SMILES): Cc1ccc(NCc2cc(=O)oc3ccc4ccccc4c23)cc1

IC50 (HepG2 [16]): 3.48 µM
Structure (SMILES): C/C(=N\Nc1nc(-c2ccccc2)cs1)c1ccc(NS(=O)(=O)c2ccc3oc(=O)ccc3c2)cc1
Activity (HepG2 [17]): 1.75%

IC50 (SK-OV-3 [18]): 18.6 µM
Structure (SMILES): Cc1cc(=O)oc2cc(OCCOCCN3C(=O)/C(=N/O)c4ccccc43)ccc12

Structure (SMILES): CC(=O)c1cc2cc(Nc3c(C)cc(C)c(-c4cc5ccccc5nc4F)c3C)c(=O)oc2cc1O
GI50 (MT4): 12.6 µM
GI50 (MDA-MB-231 [19]): 11.8 µM
GI50 (MCF7 [20]): 10.5 µM

Structure (SMILES): O=C(Cc1cc(=O)oc2cc(O)ccc12)NCCCCCCCCCNc1c2c(nc3ccccc13)CCCC2
IC50 (4T1): 5.7 µM
IC50 (MCF7 [21]): 6 µM

IC50 (HepG2 [22]): 10.3 µM
IC50 (A549 [23]): 10.9 µM
IC50 (DU-145): 20.8 µM
IC50 (MCF7 [24]): 11.3 µM
IC50 (MCF7-DOX [25]): 14.5 µM
Structure (SMILES): Cc1cc(=O)oc2cc(OCCOCCN3C(=O)/C(=N/O)c4cc(F)ccc43)ccc12

Structure (SMILES): O=c1oc2ccccc2c(O)c1C(c1cccc(Oc2ccccc2)c1)c1c(O)c2ccccc2oc1=O
IC50 (SMMC-7721): 6 µM
IC50 (Bel-7402): 8 µM
IC50 (MHCC97): 7 µM
IC50 (Hep 3B2): 9 µM

Structure (SMILES): O=C(Nc1ccc(/C=C/C(=O)c2cc3ccccc3oc2=O)cc1)Nc1ccc([N+](=O)[O-])cc1
IC50 (HepG2 [26]): 2.33 µM

Structure (SMILES): COc1ccc(-c2csc(NC(=O)c3cc4ccc(OC)cc4oc3=O)n2)cc1
IC50 (Ehrlich): 15.3 µM
IC50 [27]: 15.6 µM
IC50 [28]: 14.2 µM

IC50 (HCT-116): 3.6 µM
Structure (SMILES): CCN(CC)c1ccc2cc(C(=O)/C=C/c3ccc(OC)c(O)c3)c(=O)oc2c1

Structure (SMILES): O=C(Nc1ccc(/C=C/C(=O)c2cc3ccccc3oc2=O)cc1)Nc1ccc(C(F)(F)F)cc1
IC50 [29]: 1.62 µM

Structure (SMILES): O=c1oc2ccccc2cc1NCc1ccc(Br)cc1
IC50 (MGC-803): 10.2 µM
IC50 (A549 [30]): 8.75 µM
IC50 (NCI-H460): 9.25 µM
